# Experiments:
# B16 Melanoma = test: Antitumor activity vs. B16 Melanoma; type: in vivo; conditions: 0.01 mg/kg; Table 5
# P388 leukemia = test: In vivo P388 mouse leukemia test; conditions: for T/C (%): Table 4; for antitumor activity (in words): mouse, in vivo; for T/C: Example 6
# Description: Compounds of this invention are also active in vivo against P388 leukemia in mice. The P388 mouse leukemia test is described in detail in a publication by G. L. Neil et al., Cancer Treatment Reports, 63: 1971-1978 (1979).
# bacteria = test: Antibacterial Activity (disk zone of inhibition, Example 4); type: cell-based
# Description: | Zone of inhibition (mm)
# M. luteus = test: Antimicrobial activity vs. M. luteus (disk zones of inhibition); type: cell-based; conditions: for zone of inhibition at 0.05 µg/disc / zone of inhibition at 0.1 µg/disc / zone of inhibition at 0.2 µg/disc / zone of inhibition at 0.4 µg/disc / zone of inhibition at 0.8 µg/disc / zone of inhibition at 1.6 µg/disc: Micrococcus luteus; for zone of inhibition at 0.05 µg/disc: 50 ng/6.35-mm disk; for zone of inhibition at 0.1 µg/disc: 100 ng/6.35-mm disk; for zone of inhibition at 0.2 µg/disc: 200 ng/6.35-mm disk; for zone of inhibition at 0.4 µg/disc: 400 ng/6.35-mm disk; for zone of inhibition at 0.8 µg/disc: 800 ng/6.35-mm disk; for zone of inhibition at 1.6 µg/disc: 1600 ng/6.35-mm disk; for antimicrobial activity (in words): dilutions accurate to within a factor of 2
# Protocol: (§1) The antimicrobial activities (vs. M. luteus) and the cytotoxic activities (vs. CV-1 cells) of the ecteinascidins and ecteinascidin 743 derivatives are shown in Table 1 and 2. […] All of the derivatives of ecteinascidin 743 that were prepared have antimicrobial and cytotoxic activities.
# CV-1 cells = test: Cytotoxic activity vs. CV-1 cells (disk zones of inhibition); type: cell-based; conditions: Cercopithecidae, read-out: Zones of Inhibition; for zone of inhibition at 0.05 µg/disc: 50 ng/6.35-mm disk; for zone of inhibition at 0.1 µg/disc: 100 ng/6.35-mm disk; for zone of inhibition at 0.2 µg/disc: 200 ng/6.35-mm disk; for zone of inhibition at 0.4 µg/disc: 400 ng/6.35-mm disk; for zone of inhibition at 0.8 µg/disc: 800 ng/6.35-mm disk; for zone of inhibition at 1.6 µg/disc: 1600 ng/6.35-mm disk
# Protocol: as §1
# Klebsiella pneumoniae = test: Antimicrobial Spectrum, zones of inhibition; type: cell-based; conditions: 10 μg/disk, 6.35-mm disk
# Sarcina lutea = test: Antimicrobial Spectrum, zones of inhibition; type: cell-based; conditions: Micrococcus luteus; 10 μg/disk; 6.35-mm disk
# [1] = tested on: L1210 mouse leukemia cells; test: L1210 Tube Dilution Assay; type: cell-based
# Description: The L1210 tube dilution assay is described in detail in a publication by L. H. Li, et al., Cancer Research, 39:4816 (1979). ID50 and ID90 refer to the concentration of ecteinascidin needed to inhibit cell growth by […], respectively.
# Staphylococcus aureus = test: Antimicrobial Spectrum, zones of inhibition; type: cell-based; conditions: 10 μg/disk, 6.35-mm disk
# Escherichia coli = test: Antimicrobial Spectrum, zones of inhibition; type: cell-based; conditions: 10 μg/disk, 6.35-mm disk
# Bacillus subtilis syn = test: Antimicrobial Spectrum, zones of inhibition; type: cell-based; conditions: 10 μg/disk, 6.35-mm disk
# Bacillus subtilis = test: Antimicrobial Spectrum, zones of inhibition; type: cell-based; conditions: 10 μg/disk, 6.35-mm disk
# DNA = test: biomedical induction assay (BIA), an assay for DNA interaction
# Saccharomyces cerevisiae = test: Antimicrobial Spectrum, zones of inhibition; type: cell-based; conditions: 10 μg/disk, 6.35-mm disk
# Mycobacterium avium = test: Antimicrobial Spectrum, zones of inhibition; type: cell-based; conditions: 10 μg/disk, 6.35-mm disk
# Penicillium oxalicum = test: Antimicrobial Spectrum, zones of inhibition; type: cell-based; conditions: 10 μg/disk, 6.35-mm disk
# Pseudomonas aeruginosa = test: Antimicrobial Spectrum, zones of inhibition; type: cell-based; conditions: 10 μg/disk, 6.35-mm disk
# Sarcina lutea sens. = test: Antimicrobial Spectrum, zones of inhibition; type: cell-based; conditions: Micrococcus luteus; 10 μg/disk; 6.35-mm disk
compound,measurement,setting,value
COc1cc2c(cc1O)CCN[C@]21CS[C@@H]2c3c(OC(C)=O)c(C)c4c(c3[C@H](COC1=O)N1[C@@H]2[C@@H]2N[C@@H](Cc3cc(C)c(OC)c(O)c32)[C@@H]1O)OCO4 [Ecteinascidin 729],T/C (%),B16 Melanoma,246%
same,T/C (%),P388 leukemia; 0.0038 mg/kg,214%
same,antitumor activity (in words),P388 leukemia,strong antitumor activity
same,antitumor activity (in words),P388 leukemia; listed as Et 729,the most active antitumor agent
same,zone of inhibition at 0.063 µg/disc,bacteria; 0.063 μg/disk,19 mm
same,zone of inhibition at 0.125 µg/disc,bacteria; 0.125 μg/disk,20 mm
same,zone of inhibition at 0.25 µg/disc,bacteria; 0.250 μg/disk,22 mm
same,zone of inhibition at 0.05 µg/disc,M. luteus,7 mm
same,zone of inhibition at 0.1 µg/disc,M. luteus,8 mm
same,zone of inhibition at 0.2 µg/disc,M. luteus,11 mm
same,zone of inhibition at 0.4 µg/disc,M. luteus,15 mm
same,zone of inhibition at 0.8 µg/disc,M. luteus,16 mm
same,zone of inhibition at 1.6 µg/disc,M. luteus,18 mm
same,antimicrobial activity (in words),M. luteus,approximately equivalent and represent the most potent compounds in the series
same,zone of inhibition at 0.05 µg/disc,CV-1 cells,9 mm
same,zone of inhibition at 0.1 µg/disc,CV-1 cells,10 mm
same,zone of inhibition at 0.2 µg/disc,CV-1 cells,10 mm
same,zone of inhibition at 0.4 µg/disc,CV-1 cells,13 mm
same,zone of inhibition at 0.8 µg/disc,CV-1 cells,16 mm
same,zone of inhibition at 1.6 µg/disc,CV-1 cells,18 mm
COc1cc2c(cc1O)CCN[C@]21CS[C@@H]2c3c(OC(C)=O)c(C)c4c(c3[C@H](COC1=O)N1[C@@H]2[C@H]2c3c(cc(C)c(OC)c3O)C[C@@H]([C@@H]1O)N2C)OCO4 [Ecteinascidin 743],zone of inhibition at 10 µg/disc,Klebsiella pneumoniae,20 mm
same,zone of inhibition at 10 µg/disc,Sarcina lutea,27 mm
same,IC90,"[1]; L1210, concentration needed to inhibit cell growth by 90 percent, in vitro, read-out: ID90 (the source's name)",1.7 ng/mL
same,IC50,"[1]; L1210, read-out: ID50",0.5 ng/mL
same,zone of inhibition at 10 µg/disc,Staphylococcus aureus,19 mm
same,zone of inhibition at 10 µg/disc,Escherichia coli,11 mm
same,T/C (%),P388 leukemia; 0.015 mg/kg,167%
same,T/C,P388 leukemia; 0.031 mg/kg,161
same,T/C,P388 leukemia; 0.063 mg/kg,toxic
same,Zone of inhibition,bacteria; 0.005 μg/disk,trace
same,zone of inhibition at 0.01 µg/disc,bacteria; 0.01 μg/disk,7 mm
same,zone of inhibition at 0.02 µg/disc,bacteria; 0.02 μg/disk,9 mm
same,zone of inhibition at 0.05 µg/disc,bacteria; 0.05 μg/disk,12 mm
same,zone of inhibition at 0.1 µg/disc,bacteria; 0.1 μg/disk,14 mm
same,zone of inhibition at 0.2 µg/disc,bacteria; 0.2 μg/disk,17 mm
same,zone of inhibition at 10 µg/disc,Bacillus subtilis syn,26 mm
same,zone of inhibition at 10 µg/disc,Bacillus subtilis,25 mm
same,result in biomedical induction assay (BIA),DNA,negative
same,zone of inhibition at 10 µg/disc,Saccharomyces cerevisiae,0 mm
same,zone of inhibition at 10 µg/disc,Mycobacterium avium,17 mm
same,zone of inhibition at 10 µg/disc,Penicillium oxalicum,10 mm
same,zone of inhibition at 0.05 µg/disc,M. luteus,9 mm
same,zone of inhibition at 0.1 µg/disc,M. luteus,12 mm
same,zone of inhibition at 0.2 µg/disc,M. luteus,13 mm
same,zone of inhibition at 0.4 µg/disc,M. luteus,14 mm
same,zone of inhibition at 0.8 µg/disc,M. luteus,20 mm
same,zone of inhibition at 1.6 µg/disc,M. luteus,23 mm
same,antimicrobial activity (in words),M. luteus,approximately equivalent and represent the most potent compounds in the series
same,zone of inhibition at 0.05 µg/disc,CV-1 cells,14 mm
same,zone of inhibition at 0.1 µg/disc,CV-1 cells,16 mm
same,zone of inhibition at 0.2 µg/disc,CV-1 cells,20 mm
same,zone of inhibition at 0.4 µg/disc,CV-1 cells,23 mm
same,zone of inhibition at 0.8 µg/disc,CV-1 cells,23 mm
same,zone of inhibition at 1.6 µg/disc,CV-1 cells,28 mm
same,zone of inhibition at 10 µg/disc,Pseudomonas aeruginosa,0 mm
same,zone of inhibition at 10 µg/disc,Sarcina lutea sens.,35 mm

# From patent US5089273A, “Ecteinascidins 729, 743, 745, 759A, 759B and 770” (priority 1990, dated 1992)
